Assay results from ChEMBL document CHEMBL3745645, “Synthesis, in vitro antitumor activity, dihydrofolate reductase inhibition, DNA intercalation and structure-activity relationship studies of 1,3,5-triazine analogues” (Bioorg Med Chem Lett, 2016).
The source made the active and inactive calls. The calls are words filed in the database; no cut-off is given here.

Tests used:
[1] = Cytotoxicity against human Caki1 cells at 10 uM after 48 hrs by SRB assay; format: functional; conditions: CAKI-1, 48 h, read-out: GI
[2] = (§1) Cytotoxicity against human TK10 cells at 10 uM after 48 hrs by SRB assay; format: functional; conditions: TK-10, 48 h, read-out: GI
[3] = Cytotoxicity against human UO31 cells at 10 uM after 48 hrs by SRB assay; format: functional; conditions: UO-31, 48 h, read-out: GI
[4] = Cytotoxicity against human PC3 cells at 10 uM after 48 hrs by SRB assay; format: functional; conditions: PC-3, 48 h, read-out: GI
[5] = test system: MCF7; experiment: Cytotoxicity against human MCF7 cells at 10 uM after 48 hrs by SRB assay; format: functional; conditions: MCF7, 48 h, read-out: GI
[6] = test system: MDA-MB-231; experiment: Cytotoxicity against human MDA-MB-231 cells at 10 uM after 48 hrs by SRB assay; format: functional; conditions: MDA-MB-231, 48 h, read-out: GI
[7] = (§2) Cytotoxicity against human BT549 cells at 10 uM after 48 hrs by SRB assay; format: functional; conditions: BT-549, 48 h, read-out: GI
[8] = test system: T47D; experiment: Cytotoxicity against human T47D cells at 10 uM after 48 hrs by SRB assay; format: functional; conditions: read-out: GI
[9] = test system: MDA-MB-468; experiment: Cytotoxicity against human MDA-MB-468 cells at 10 uM after 48 hrs by SRB assay; format: functional; conditions: MDA-MB-468, 48 h, read-out: GI
[10] = Cytotoxicity against human RPMI8226 cells after 48 hrs by SRB assay; format: functional; conditions: RPMI-8226, 48 h, read-out: LC50 (the source's name)
[11] = Cytotoxicity against human COLO205 cells after 48 hrs by SRB assay; format: functional; conditions: COLO 205, 48 h, pooled result: one value given for 7 cell lines, strains, targets or settings
[12] = Cytotoxicity against human IGROV1 cells after 48 hrs by SRB assay; format: functional; conditions: IGROV-1, 48 h, pooled result: one value given for 7 cell lines, strains, targets or settings
[13] = test system: Calf thymus DNA; experiment: Binding affinity to calf thymus DNA by UV-vis spectrometric analysis; format: nucleic-acid assay; conditions: Bos taurus
[14] = test system: Calf thymus DNA; experiment: Binding affinity to calf thymus DNA by fluorescence spectrophotometric analysis; format: nucleic-acid assay; conditions: Bos taurus
[15] = test system: RPMI-8226; experiment: (§3) Cytotoxicity against human RPMI8226 cells at 10 uM after 48 hrs by SRB assay; format: functional
[16] = Cytotoxicity against human HOP62 cells at 10 uM after 48 hrs by SRB assay; format: functional; conditions: HOP-62, 48 h, read-out: GI
[17] = Cytotoxicity against human HOP92 cells at 10 uM after 48 hrs by SRB assay; format: functional; conditions: HOP-92, 48 h, read-out: GI
[18] = test system: NCI-H460; experiment: Cytotoxicity against human NCI-H460 cells at 10 uM after 48 hrs by SRB assay; format: functional; conditions: NCI-H460, 48 h, read-out: GI
[19] = (§4) Cytotoxicity against human HCC2998 cells at 10 uM after 48 hrs by SRB assay; format: functional; conditions: HCC 2998, 48 h, read-out: GI
[20] = Cytotoxicity against human HCT116 cells at 10 uM after 48 hrs by SRB assay; format: functional; conditions: HCT-116, 48 h, read-out: GI
[21] = Cytotoxicity against human HCT15 cells at 10 uM after 48 hrs by SRB assay; format: functional; conditions: HCT-15, 48 h, read-out: GI
[22] = test system: KM12; experiment: Cytotoxicity against human KM12 cells at 10 uM after 48 hrs by SRB assay; format: functional; conditions: KM12, 48 h, read-out: GI
[23] = Cytotoxicity against human SF295 cells at 10 uM after 48 hrs by SRB assay; format: functional; conditions: SF-295, 48 h, read-out: GI
[24] = Cytotoxicity against human SNB19 cells at 10 uM after 48 hrs by SRB assay; format: functional; conditions: SNB-19, 48 h, read-out: GI
[25] = test system: MDA-MB-435; experiment: Cytotoxicity against human MDA-MB-435 cells at 10 uM after 48 hrs by SRB assay; format: functional; conditions: MDA-MB-435, 48 h, read-out: GI
[26] = test system: SK-MEL-2; experiment: Cytotoxicity against human SK-MEL-2 cells at 10 uM after 48 hrs by SRB assay; format: functional; conditions: SK-MEL-2, 48 h, read-out: GI
[27] = test system: SK-MEL-28; experiment: Cytotoxicity against human SK-MEL-28 cells at 10 uM after 48 hrs by SRB assay; format: functional; conditions: SK-MEL-28, 48 h, read-out: GI
[28] = test system: SK-MEL-5; experiment: Cytotoxicity against human SK-MEL-5 cells at 10 uM after 48 hrs by SRB assay; format: functional; conditions: SK-MEL-5, 48 h, read-out: GI
[29] = (§5) Cytotoxicity against human UACC257 cells at 10 uM after 48 hrs by SRB assay; format: functional; conditions: UACC-257, 48 h, read-out: GI
[30] = Cytotoxicity against human UACC62 cells at 10 uM after 48 hrs by SRB assay; format: functional; conditions: UACC-62, 48 h, read-out: GI
[31] = (§6) Cytotoxicity against human OVCAR4 cells at 10 uM after 48 hrs by SRB assay; format: functional; conditions: OVCAR-4, 48 h, read-out: GI
[32] = Cytotoxicity against human OVCAR8 cells at 10 uM after 48 hrs by SRB assay; format: functional; conditions: OVCAR-8, 48 h, read-out: GI
[33] = Cytotoxicity against human NCI-ADR-RES cells at 10 uM after 48 hrs by SRB assay; format: functional; conditions: read-out: GI
[34] = test system: ACHN; experiment: Cytotoxicity against human ACHN cells at 10 uM after 48 hrs by SRB assay; format: functional; conditions: read-out: GI
[35] = as §3; format: functional; conditions: RPMI-8226, 48 h, read-out: GI
[36] = test system: NCI-H23; experiment: Cytotoxicity against human NCI-H23 cells at 10 uM after 48 hrs by SRB assay; format: functional; conditions: NCI-H23, 48 h, read-out: GI
[37] = test system: HCC 2998; experiment: as §4; format: functional
[38] = test system: U-251; experiment: Cytotoxicity against human U251 cells at 10 uM after 48 hrs by SRB assay; format: functional; conditions: U-251, 48 h, read-out: GI
[39] = test system: UACC-257; experiment: as §5; format: functional
[40] = test system: OVCAR-4; experiment: as §6; format: functional
[41] = test system: OVCAR-5; experiment: Cytotoxicity against human OVCAR5 cells at 10 uM after 48 hrs by SRB assay; format: functional
[42] = test system: TK-10; experiment: as §1; format: functional
[43] = test system: BT-549; experiment: as §2; format: functional
[44] = test system: HL-60(TB); experiment: Cytotoxicity against human HL-60(TB) cells at 10 uM after 48 hrs by SRB assay; format: functional

Cc1nc2cc(Nc3nc(Nc4ccc(F)cc4)nc(-c4cccs4)n3)ccc2n1Cc1ccccc1
inhibition of growth at 10 µM [1]: 29.8% | inhibition of growth at 10 µM [2]: 37.3% | inhibition of growth at 10 µM [3]: 63.5% | inhibition of growth at 10 µM [4]: 70.6% | inhibition of growth at 10 µM [5]: 67.1% | inhibition of growth at 10 µM [6]: 30.9% | inhibition of growth at 10 µM [7]: 30.5% | inhibition of growth at 10 µM [8]: 76.7% | inhibition of growth at 10 µM [9]: 66.8% | CC50 [10]: > 100 µM | GI50 [11]: 3.23 µM | LC50 [11]: 25.3 µM | TGI [11]: 17 µM | GI50 [12]: 8.83 µM | LC50 (concentration killing 50% of cells) [12]: 75.7 µM | TGI [12]: 27.3 µM | Ka [13]: 3.19 ×10⁴ /M | Ka [14]: 4.21 ×10⁴ /M | growth inhibition (GI) [15]: Active | inhibition of growth at 10 µM [16]: 7.68% | inhibition of growth at 10 µM [17]: 78% | inhibition of growth at 10 µM [18]: 60.4% | inhibition of growth at 10 µM [19]: 27.9% | inhibition of growth at 10 µM [20]: 75.8% | inhibition of growth at 10 µM [21]: 69.7% | inhibition of growth at 10 µM [22]: 74.8% | inhibition of growth at 10 µM [23]: 48.1% | inhibition of growth at 10 µM [24]: 33.3% | inhibition of growth at 10 µM [25]: 56.2% | inhibition of growth at 10 µM [26]: 27.1% | inhibition of growth at 10 µM [27]: 25.7% | inhibition of growth at 10 µM [28]: 23.5% | inhibition of growth at 10 µM [29]: 42.5% | inhibition of growth at 10 µM [30]: 38.5% | inhibition of growth at 10 µM [31]: 49% | inhibition of growth at 10 µM [32]: 63% | inhibition of growth at 10 µM [33]: 42.7% | inhibition of growth at 10 µM [34]: 54.4%

Cc1nc2ccc(Nc3nc(Cl)nc(Nc4ccc(F)cc4)n3)cc2n1Cc1ccccc1
inhibition of growth at 10 µM [1]: 13.1% | inhibition of growth at 10 µM [2]: 7.64% | inhibition of growth at 10 µM [3]: 62.9% | inhibition of growth at 10 µM [4]: 19.2% | inhibition of growth at 10 µM [5]: 37.4% | inhibition of growth at 10 µM [6]: 25.9% | inhibition of growth at 10 µM [7]: 39.8% | inhibition of growth at 10 µM [8]: 63.2% | inhibition of growth at 10 µM [9]: 30.3% | CC50 [10]: > 100 µM | GI50 [11]: 4.91 µM | LC50 [11]: 54.6 µM | TGI [11]: 18.1 µM | GI50 [12]: 8.1 µM | LC50 (concentration killing 50% of cells) [12]: 78.8 µM | TGI [12]: 29.8 µM | Ka [13]: 6.03 ×10⁴ /M | Ka [14]: 2.97 ×10⁴ /M | inhibition of growth at 10 µM [35]: 87.5% | inhibition of growth at 10 µM [16]: 56.1% | inhibition of growth at 10 µM [17]: 21.2% | inhibition of growth at 10 µM [36]: 11.8% | inhibition of growth at 10 µM [18]: 20.1% | growth inhibition (GI) [37]: inactive | inhibition of growth at 10 µM [20]: 55.8% | inhibition of growth at 10 µM [21]: 44.2% | inhibition of growth at 10 µM [22]: 27.2% | inhibition of growth at 10 µM [23]: 21.8% | inhibition of growth at 10 µM [24]: 12% | inhibition of growth at 10 µM [38]: 30.9% | inhibition of growth at 10 µM [25]: 11.2% | inhibition of growth at 10 µM [27]: 8.45% | inhibition of growth at 10 µM [28]: 30.8% | growth inhibition (GI) [39]: inactive | inhibition of growth at 10 µM [30]: 48.6% | growth inhibition (GI) [40]: inactive | growth inhibition (GI) [41]: inactive | inhibition of growth at 10 µM [32]: 57.7% | inhibition of growth at 10 µM [34]: 28.4%

Cc1nc2cc(Nc3nc(Nc4ccc(F)cc4)nc(-c4ccc(Cl)cc4)n3)ccc2n1Cc1ccccc1
inhibition of growth at 10 µM [1]: 9.6% | growth inhibition (GI) [42]: inactive | inhibition of growth at 10 µM [3]: 55.5% | inhibition of growth at 10 µM [5]: 57.6% | inhibition of growth at 10 µM [6]: 34% | growth inhibition (GI) [43]: inactive | inhibition of growth at 10 µM [8]: 69.3% | inhibition of growth at 10 µM [9]: 25.7% | CC50 [10]: > 100 µM | GI50 [11]: 4.97 µM | LC50 [11]: > 100 µM | TGI [11]: 59.8 µM | GI50 [12]: 6.1 µM | LC50 (concentration killing 50% of cells) [12]: 65.4 µM | TGI [12]: 24.4 µM | Ka [13]: 3.39 ×10⁴ /M | Ka [14]: 1.97 ×10⁴ /M | growth inhibition (GI) [44]: Active | inhibition of growth at 10 µM [35]: 99.8% | inhibition of growth at 10 µM [16]: 19.4% | inhibition of growth at 10 µM [17]: 65% | inhibition of growth at 10 µM [18]: 28.9% | inhibition of growth at 10 µM [19]: 18.4% | inhibition of growth at 10 µM [20]: 49.7% | inhibition of growth at 10 µM [21]: 35.6% | inhibition of growth at 10 µM [22]: 62.8% | inhibition of growth at 10 µM [23]: 9.63% | inhibition of growth at 10 µM [24]: 16.6% | inhibition of growth at 10 µM [38]: 30.3% | inhibition of growth at 10 µM [25]: 33.8% | inhibition of growth at 10 µM [26]: 16.4% | inhibition of growth at 10 µM [27]: 7.37% | inhibition of growth at 10 µM [28]: 16.6% | inhibition of growth at 10 µM [29]: 31.1% | inhibition of growth at 10 µM [31]: 41.4% | inhibition of growth at 10 µM [32]: 37.2% | inhibition of growth at 10 µM [33]: 41% | inhibition of growth at 10 µM [34]: 28.4%
